Data on 21 compounds can be found in US12527774B2, “Estrogen-related receptor alpha modulators” (LEAD PHARMA HOLDING B.V., priority 2019, dated 2026).

Sequence of full length ERRα (P11474 whole entry): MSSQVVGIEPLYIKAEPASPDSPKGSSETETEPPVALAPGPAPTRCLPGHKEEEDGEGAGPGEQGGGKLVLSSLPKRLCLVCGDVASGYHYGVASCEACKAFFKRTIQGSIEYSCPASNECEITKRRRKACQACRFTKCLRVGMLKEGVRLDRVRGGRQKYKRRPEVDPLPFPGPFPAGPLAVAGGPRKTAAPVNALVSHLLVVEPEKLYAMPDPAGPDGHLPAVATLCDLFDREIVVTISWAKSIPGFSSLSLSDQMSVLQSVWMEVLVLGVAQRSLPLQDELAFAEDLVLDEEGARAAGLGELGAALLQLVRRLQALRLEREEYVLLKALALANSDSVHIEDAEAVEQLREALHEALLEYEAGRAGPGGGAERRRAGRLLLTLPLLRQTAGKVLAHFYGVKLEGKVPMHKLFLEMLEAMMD
Sequence of ERRα ligand binding domain (ERRα-LBD) (P11474 193-421): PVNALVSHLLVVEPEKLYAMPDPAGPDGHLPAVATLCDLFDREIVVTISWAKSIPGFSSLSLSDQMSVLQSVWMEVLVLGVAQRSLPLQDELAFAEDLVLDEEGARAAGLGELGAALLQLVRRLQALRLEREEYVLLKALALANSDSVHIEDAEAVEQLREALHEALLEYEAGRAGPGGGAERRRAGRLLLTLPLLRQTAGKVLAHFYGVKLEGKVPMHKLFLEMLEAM

One assay concerns the target ERRα ligand binding domain (ERRα-LBD) (Homo sapiens (Human), UniProt P11474). Description: ERRα AlphaScreen Assay. Format: biochemical. The following applies: disruption of binding of ERRα-LBD protein to biotin-PGC1α-3 co-activator peptide. The essentials: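 His-SUMO-tagged ERRα-LBD from E. coli (0.81 nM) preincubated 1 h at room temperature with compound, streptavidin donor and Ni-chelate acceptor beads (10 μg/mL each), then 2 h with 15 nM biotin-PGC1α-3 peptide (aa 202–220). Buffer: 50 mM Tris-HCl pH 7.5, 100 mM NaCl, 5 mM TCEP, 1% DMSO. Four-parameter IC50; mean pIC50 of replicate values.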
On the technique in general: Bead proximity is the source of the signal in Alpha formats.
For the compound `COc1ccc(C(F)(F)F)c(COc2ccc(-c3cc(=O)[nH]c4n[nH]cc34)cc2OC)c1` [Example 178, 4-(3-methoxy-4-{[5-methoxy-2-(trifluoromethyl)phenyl]methoxy}phenyl)-2H,6H,7H-pyrazolo[3,4-b]pyridin-6-one], the “mean pIC50” value was at least 8.

As to `COc1cc(C2CC(=O)Nc3n[nH]cc32)ccc1OCc1ccc(O)cc1C(F)(F)F` (centres unmarked) [Example 154, 4-(4-{[4-hydroxy-2-(trifluoromethyl)phenyl]methoxy}-3-methoxyphenyl)-2H,4H,5H,6H, 7H-pyrazolo[3,4-b]pyridin-6-one], the “mean pIC50” value is recorded as at least 8.

`COc1cc(C2CC(=O)Nc3[nH]nnc32)ccc1OCc1ccccc1C(F)(F)F` (centres unmarked) [Example 90, 7-(3-methoxy-4-{[2-(trifluoromethyl)phenyl]methoxy}phenyl)-3H,4H,5H,6H, 7H-[1,2,3]triazolo[4,5-b]pyridin-5-one]: the “mean pIC50” value is at least 8.

The assay is the same for the next values; noted with them: disruption of binding of ERRα-LBD protein to biotin-PGC1α-3 co-activator peptide; read-out: mean pIC50 (converted).
Regarding `COc1cc(C2CC(=O)Nc3n[nH]cc32)ccc1COc1ccc(Br)cc1C(F)(F)F` (centres unmarked) [Example 96, 4-(4-{[4-bromo-2-(trifluoromethyl)phenoxy]methyl}-3-methoxyphenyl)-2H,4H,5H,6H, 7H-pyrazolo[3,4-b]pyridin-6-one], the IC50 is at most 10 nM.

As to `COc1cc(C2CC(=O)Nc3n[nH]c(F)c32)ccc1OCc1ccccc1C(F)(F)F` (centres unmarked) [Example 95, 3-fluoro-4-(3-methoxy-4-{[2-(trifluoromethyl)phenyl]methoxy}phenyl)-2H,4H,5H,6H, 7H-pyrazolo[3,4-b]pyridin-6-one], the IC50 is 100 to 1000 nM.

For `COc1cc(C2CC(=O)Nc3n[nH]cc32)ccc1OCc1cccc(OC)c1OC` (centres unmarked) [Example 39, 4-{4-[(2,3-dimethoxyphenyl)methoxy]-3-methoxyphenyl}-2H,4H,5H,6H,7H-pyrazolo[3,4-b]pyridin-6-one], the IC50 was 100 to 1000 nM.

As for `COc1cc(C2CC(=O)Nc3n[nH]cc32)ccc1OCc1cccc(C(F)(F)F)c1F` (centres unmarked) [Example 28, 4-(4-{[2-fluoro-3-(trifluoromethyl)phenyl]methoxy}-3-methoxyphenyl)-2H,4H,5H,6H,7H-pyrazolo[3,4-b]pyridin-6-one], the IC50 was 100 to 1000 nM.

`COc1ccc([N+](=O)[O-])cc1COc1ccc(C2CC(=O)Nc3n[nH]cc32)cc1OC` (centres unmarked) [Example 25, 4-{3-methoxy-4-[(2-methoxy-5-nitrophenyl)methoxy]phenyl}-2H,4H,5H,6H,7H-pyrazolo[3,4-b]pyridin-6-one]: the IC50 is 100 to 1000 nM.

Regarding `COc1cc(C2CC(=O)Nc3n[nH]cc32)ccc1OCc1ccc(C(C)(C)CO)cc1C(F)(F)F` (centres unmarked) [Example 152, 4-(4-{[4-(1-hydroxy-2-methylpropan-2-yl)-2-(trifluoromethyl)phenyl]methoxy}-3-methoxyphenyl)-2H,4H,5H,6H, 7H-pyrazolo[3,4-b]pyridin-6-one], the IC50 is 10 to 100 nM.

Turning to `COc1cc(C2CC(=O)Nc3n[nH]cc32)ccc1OCc1cccc(Cl)c1Cl` (centres unmarked) [Example 22, 4-{4-[(2,3-dichlorophenyl)methoxy]-3-methoxyphenyl}-2H,4H,5H,6H,7H-pyrazolo[3,4-b]pyridin-6-one], the IC50 was 100 to 1000 nM.

For `COc1cc(C2CC(=O)Nc3n[nH]cc32)ccc1OCc1cccc2ccsc12` (centres unmarked) [Example 45, 4-{4-[(1-benzothiophen-7-yl)methoxy]-3-methoxyphenyl}-2H,4H,5H,6H, 7H-pyrazolo[3,4-b]pyridin-6-one], the IC50 is 10 to 100 nM.

Consider `COc1cc(C2CC(=O)Nc3n[nH]cc32)ccc1OCc1cccc2c1OC(C)(C)C2` (centres unmarked) [Example 46, 4-{4-[(2,2-dimethyl-2,3-dihydro-1-benzofuran-7-yl)methoxy]-3-methoxyphenyl}-2H,4H,5H,6H, 7H-pyrazolo[3,4-b]pyridin-6-one], for which the IC50 was 100 to 1000 nM.

For `O=C1CC(c2ccc(OCc3ccccc3C(F)(F)F)c(Cl)c2)c2c[nH]nc2N1` (centres unmarked) [Example 72, 4-(3-chloro-4-{[2-(trifluoromethyl)phenyl]methoxy}phenyl)-2H,4H,5H,6H, 7H-pyrazolo[3,4-b]pyridin-6-one], the IC50 was 10 to 100 nM.

On to `O=C1CC(c2ccc(OCc3ccccc3C(F)(F)F)c(F)c2)c2c[nH]nc2N1` (centres unmarked) [Example 74, 4-(3-fluoro-4-{[2-(trifluoromethyl)phenyl]methoxy}phenyl)-2H,4H,5H,6H, 7H-pyrazolo[3,4-b]pyridin-6-one], for which the IC50 was 10 to 100 nM.

`COc1cc(C2CC(=O)Nc3n[nH]cc32)ccc1OCc1c(F)cccc1C(F)(F)F` (centres unmarked) [Example 21, 4-(4-{[2-fluoro-6-(trifluoromethyl)phenyl]methoxy}-3-methoxyphenyl)-2H,4H,5H,6H,7H-pyrazolo[3,4-b]pyridin-6-one]: the IC50 is 100 to 1000 nM.

With `O=C1CC(c2ccc(OCc3ccccc3C(F)(F)F)c(C(=O)Nc3nnc[nH]3)c2)c2c[nH]nc2N1` (centres unmarked) [Example 131, 5-{6-oxo-2H, 4H,5H, 6H, 7H-pyrazolo[3,4-b]pyridin-4-yl}-N-(4H-1,2,4-triazol-3-yl)-2-{[2-(trifluoromethyl)phenyl]methoxy}benzamide], the IC50 was 100 to 1000 nM.

The target of another assay is full length ERRα (Homo sapiens (Human), UniProt P11474). The assay can be described thus: Full Length ERRα Reporter Gene Assay. It is filed as cell-based. As to conditions: SK-BR-3 cells, ERRα-RE luciferase reporter, overnight incubation. The text has this:
Full Length ERRα Reporter Gene Assay
A method was established to quantitatively screen the potency of compounds with inverse agonistic activity on the nuclear receptor ERRα of the human species. The assay allows intra-cellular screening of ERRα inverse agonists in SK-BR-3 cells using an over-expression construct coding full length ERRα and a reporter construct containing an ERRα Response Element (RE) and a luciferase gene for read out. The activity is expressed in log IC50 values and can be used to determine SAR of compound families or to de-select compounds.
In this assay, reporter cells are obtained by transient co-transfection of two constructs in SK-BR-3 cells using standard transfection techniques. The first construct contains a response element of the nuclear receptor ERRα (Plasmid pLP2175, Reporter construct ERRα-RE/luc2P, cloned variant of ERRα_v2_synthRE, Switchgear Genomics, Catalog Number S900089). This sequence drives the transcription of the luciferase reporter gene in response to binding of an ERRα protein encoded by the second construct (Plasmid pLP2124: full length ERRα expression construct using pcDNA3.1/Hygro(+) as background, Invitrogen Catalog Number V87020).
The day after transfection, cells were plated into 96 well plates, test compound was added and the plates were incubated overnight. Subsequently, the firefly luciferase activity was quantified using luciferase detection reagent and luminescence readout.
Detailed Assay Description
Transfection is performed on pre-seeded SK-BR-3 cells in a T175 flask. One transfected T175 flask is sufficient for seeding 3 to 4 MW96 plates the next day, depending on the confluency of the transfected cells.
Two different media are used in this protocol for cell treatment: 1) Culture medium, i.e. McCoy's 5a with phenol red (BioWhittaker Supplier Number 12-688F), 10% FBS and 1× Penstrep.; and, 2) Assay medium, i.e. McCoy's 5a Medium phenol red free (HyClone Product Code SH30270.01) with 2% Charcoal Stripped FBS and 1× Penstrep. Compound dilutions are prepared in assay medium.
Cells are seeded at least 2 days in advance to allow the cells to adhere well to flask before transfection. Cells should be 50-80% confluent at the day of transfection.
SKBR3 cells were transfected with the transcriptional reporter construct pLP2175 and the ERRα expression construct pLP2124 (as described above).
68 μL of Lipofectamine LTX transfection reagent (Invitrogen Catalog Number 15338-100) was added dropwise to 8.9 ml Opti-MEM I Reduced Serum Medium (Gibco Catalog Number 51985-026) and incubated at room temperature for 5 to 20 minutes. 8.9 ml of this reagent mixture was added to 22 μg pLP2175+22 μg pLP2124 (ratio 1:1 and total volume 10 ml), and incubated at room temperature for 25 minutes.
10 minutes before adding the transfection mix to SKBR3 cells in a T175 flask, the culture medium was refreshed with 20 mL culture medium. Subsequently, the 10 mL DNA-Opti-MEM-Lipofectamine mixture was gently added to the cells, followed by overnight (16-24 hours) incubation at 37° C. and 5% CO2.
To harvest SKBR3 cells from a T175 flask, first the medium was removed. Subsequently, cells were washed with Phosphate Buffered Saline (PBS) (Lonza), after which the PBS was removed. To dissociate the cells, 2 ml of TrypLE Express (Invitrogen) was added to the flask, followed by incubation at 37° C. for 5 minutes. The flask was tapped until cells were detached from the bottom. Cells were collected in 8 mL of culture medium (McCoy's 5α, 10% FBS, penstrep), to achieve a single cell suspension. After cell count, cells were spun down for 5 minutes at 300 g. Next cell pellets were re-suspended to 25000 cells/80 μl assay medium (McCoy's 5a phenol red free, 2% charcoal stripped FBS, penstrep).
For compound screening, the cells were harvested (as described above). 80 μL of cell suspension (25,000 cells) was plated per well into a white, flat bottom, tissue culture treated, 96 well screening plates (Greiner). […]
A general note: In a reporter assay the amount or activity of a reporter protein is the signal.
Regarding `COc1cc(C2CC(=O)Nc3n[nH]cc32)ccc1OCc1ccc(CCO)cc1C(F)(F)F` (single isomer, unassigned; (-)) [Example 212, (−)-4-(4-{[4-(2-hydroxyethyl)-2-(trifluoromethyl)phenyl]methoxy}-3-methoxyphenyl)-2H,4H,5H,6H,7H-pyrazolo[3,4-b]pyridin-6-one], the “mean pIC50” value is at least 6.5.

Staying with this assay, now noted: SK-BR-3 cells, ERRα-RE luciferase reporter, overnight incubation; read-out: mean pIC50 (converted).
Consider `COc1ccc(C(F)(F)F)c(COc2ccc(-c3cc(=O)[nH]c4n[nH]cc34)cc2OC)c1` [Example 178, 4-(3-methoxy-4-{[5-methoxy-2-(trifluoromethyl)phenyl]methoxy}phenyl)-2H,6H,7H-pyrazolo[3,4-b]pyridin-6-one], for which the IC50 was at most 316 nM.

Take `COc1cc(C2CC(=O)Nc3n[nH]cc32)ccc1COc1ccc(Br)cc1C(F)(F)F` (centres unmarked) [Example 96, 4-(4-{[4-bromo-2-(trifluoromethyl)phenoxy]methyl}-3-methoxyphenyl)-2H,4H,5H,6H, 7H-pyrazolo[3,4-b]pyridin-6-one]: the IC50 is at most 316 nM.

Regarding `CCc1ccc(COc2ccc(C3CC(=O)Nc4n[nH]cc43)cc2OC)c(C(F)(F)F)c1` (single isomer, unassigned; (+)) [Example 207, (+)-4-(4-{[4-ethyl-2-(trifluoromethyl)phenyl]methoxy}-3-methoxyphenyl)-2H,4H,5H,6H,7H-pyrazolo[3,4-b]pyridin-6-one], the IC50 was at most 316 nM.

For the compound `COc1ccc(COc2ccc(C3CC(=O)Nc4[nH]nnc43)cc2OC)c(C(F)(F)F)c1` (single isomer, unassigned; (-)) [Example 202, (−)-7-(3-methoxy-4-{[4-methoxy-2-(trifluoromethyl)phenyl]methoxy}phenyl)-3H,4H,5H,6H,7H-[1,2,3]triazolo[4,5-b]pyridin-5-one], the IC50 was at most 316 nM.

Take `COc1cc(C2CC(=O)Nc3n[nH]cc32)ccc1OCc1ccc(C(C)=O)cc1C(F)(F)F` (single isomer, unassigned; (-)) [Example 200, (−)-4-(4-{[4-acetyl-2-(trifluoromethyl)phenyl]methoxy}-3-methoxyphenyl)-2H,4H,5H,6H,7H-pyrazolo[3,4-b]pyridin-6-one]: the IC50 is at most 316 nM.

In the case of `COc1ccc(COc2ccc(C3CC(=O)Nc4n[nH]cc43)cc2OC)c(C(F)(F)F)c1` (single isomer, unassigned; (-)) [Example 198, (−)-4-(3-methoxy-4-{[4-methoxy-2-(trifluoromethyl)phenyl]methoxy}phenyl)-2H,4H,5H,6H,7H-pyrazolo[3,4-b]pyridin-6-one], the IC50 was at most 316 nM.
